Data taken from patent US20230038201A1, “TRANSFER FILM, PHOTOSENSITIVE MATERIAL, PATTERN FORMING METHOD, MANUFACTURING METHOD OF CIRCUIT BOARD, AND MANUFACTURING METHOD OF TOUCH PANEL” (FUJIFILM Corporation, priority 2020, published 2023).
Where two headings read alike, the source gives them in different places.

Key:
[1] = Measurement of pKa of compound β in ground state (acid titration, 0.1 N HCl, methanol/water); settings: for pKa: methanol/water mixture
[2] = Measurement of ε365 and ε365/ε313 of compound β (molar absorption coefficients in acetonitrile); format: physicochemical; design: key to ε365 of Compound β: molar absorption coefficient at 365 nm in (cm·mol/L)^−1; settings: for ε365/ε313: compound β
Source text: (Measurement and Evaluation of ε365 and ε365/ε313)
A molar absorption coefficient ((cm·mol/L)^−1, “ε365”) of the compound β at 365 nm and a molar absorption coefficient ((cm·mol/L)^−1, “ε313”) of the compound β at 313 nm were obtained, and a value (ε365/ε313) obtained by divided ε365 by ε313 was obtained.
The ε365 and ε313 of the compound β are molar absorption coefficients measured by dissolving the compound β in acetonitrile. In a case where the compound β was insoluble in acetonitrile, a solvent for dissolving the compound β may be appropriately changed.

[3] = pKa of Compound β in ground state
[4] = pKa of Compound β in ground state, compound β alone
[5] = pKa of Compound β in ground state, compound β, ground state
[6] = pKa of Compound β in ground state, ground state
[7] = molar absorption coefficient at 365 nm
[8] = molar absorption coefficient at 365 nm in acetonitrile
[9] = molar absorption coefficient at 365 nm, compound β alone
[10] = molar absorption coefficient at 365 nm, in acetonitrile
[11] = compound β, pKa of the conjugate acid for nitrogen-containing aromatic compounds
[12] = pKa in ground state, compound β, pKa of the conjugate acid for nitrogen-containing aromatic compounds

Structure (SMILES)	pKa [1, 3]	pKa [1, 4]	pKa [1, 5]	pKa [1, 6]	ε365 of Compound β [2]	ε365 of Compound β ([2]; compound β alone)	ε365 of Compound β [2, 7]	ε365 of Compound β [2, 8]	ε365 of Compound β [2, 9]	ε365 of Compound β [2, 10]	pKa [1, 12]	also measured
COc1cc(C)nc2ccccc12 [Example 2-Methyl-4-methoxyquinoline, 2-Methyl-4-methoxyquinoline]	6.51	6.51	6.51	6.51	<10	<10	<10	<10 (cm·mol/L)^−1	<10	<10 (cm·mol/L)^−1	–	–
c1ccc2nc3ccccc3cc2c1 [Example B3, acridine]	4.67	4.67	4.67	4.67	4900	4900	4900	4900 (cm·mol/L)^−1	4900	4900 (cm·mol/L)^−1	4.7	pKa in ground state [1, 11]: 4.67; ε365/ε313 ([2]; in acetonitrile): >3
CCCCc1ncc(C)c2ccccc12 [Example B5, 1-n-butyl-4-methylisoquinoline]	–	–	–	–	–	–	–	–	–	–	5.9	–
c1cnc2c(c1)CCCC2 [5,6,7,8-Tetrahydroquinoline]	–	–	–	–	–	–	–	–	–	–	5.9	ε365/ε313 ([2]; in acetonitrile): <1
CC(=O)c1ccncc1 [4-Acetylpyridine]	–	–	–	–	–	–	–	–	–	–	3.1	ε365/ε313 ([2]; in acetonitrile): <1
c1ccc2c(c1)cnc1ccccc12 [Phenanthridine]	–	–	–	–	–	–	–	–	–	–	3.8	ε365/ε313 ([2]; in acetonitrile): <1
Clc1ccccn1 [Example 2-Chloropyridine, 2-Chloropyridine]	–	–	–	–	<10	<10	<10	<10 (cm·mol/L)^−1	<10	<10 (cm·mol/L)^−1	–	pKa of Compound β in ground state [1]: 0.70; pKa of Compound β in ground state ([1]; compound β alone): 0.70; pKa of Compound β in ground state ([1]; compound β, ground state): 0.70; pKa of Compound β in ground state ([1]; ground state): 0.70
CCCCc1nccc2ccccc12 [Example B4, 1-n-butylisoquinoline]	–	–	–	–	–	–	–	–	–	–	5.27	–
O=C(c1ccccc1)c1ccncc1 [4-Benzoylpyridine]	–	–	–	–	–	–	–	–	–	–	2.9	ε365/ε313 ([2]; in acetonitrile): <1
CCCCc1ncc(C)c2ccccc12 [Example 1-n-Butyl-4-methylisoquinoline, 1-n-Butyl-4-methylisoquinoline]	5.9	5.9	5.9	5.9	<10	<10	<10	<10 (cm·mol/L)^−1	<10	<10 (cm·mol/L)^−1	–	–
Cc1nccc2ccccc12 [Example B6, 1-Me-isoquinoline]	–	–	–	–	<10	<10	<10	<10 (cm·mol/L)^−1	<10	<10 (cm·mol/L)^−1	–	pKa of Compound β in ground state [1]: 5.31; pKa of Compound β in ground state ([1]; compound β alone): 5.31; pKa of Compound β in ground state ([1]; compound β, ground state): 5.31; pKa in ground state [1, 11]: 5.31; pKa of Compound β in ground state ([1]; ground state): 5.31
c1ccc2ncccc2c1 [Example B2, quinoline]	4.15	4.15	4.15	4.15	<10	<10	<10	<10 (cm·mol/L)^−1	<10	<10 (cm·mol/L)^−1	4.2	pKa in ground state [1, 11]: 4.15; ε365/ε313 ([2]; in acetonitrile): <1
Cc1cc(C)c2ccccc2n1 [Example B12, 2,4-dimethylquinoline]	5.67	5.67	5.67	5.67	<10	–	<10	<10 (cm·mol/L)^−1	<10	<10 (cm·mol/L)^−1	5.67	–
COc1cc(C)nc2ccccc12 [Example B8, 2-methyl-4-methoxyquinoline]	–	–	–	–	–	–	–	–	–	–	6.51	–
c1ccc(-c2c3ccccc3nc3ccccc23)cc1 [Example B10, 9-phenylacridine]	–	–	–	–	–	–	–	–	–	–	4.04	–
Cc1cc(C)c2c(C)cc(C)nc2c1 [2,4,5,7-Tetramethylquinoline]	6.23	6.23	6.23	6.23	<10	<10	<10	<10 (cm·mol/L)^−1	<10	<10 (cm·mol/L)^−1	–	–
c1ccc2cnccc2c1 [Example B1, isoquinoline]	4.69	4.69	4.69	4.69	<10	<10	<10	<10 (cm·mol/L)^−1	<10	<10 (cm·mol/L)^−1	4.7	pKa in ground state [1, 11]: 4.69; ε365/ε313 ([2]; in acetonitrile): <1
Cc1cc(C)c2c(C)cc(C)nc2c1 [Example B7, 2,4,5,7-tetramethylquinoline]	–	–	–	–	–	–	–	–	–	–	6.23	–
Cc1c2ccccc2nc2ccccc12 [Example B9, 9-methylacridine]	–	–	–	–	–	–	–	–	–	–	5.4	–
CCCCc1nccc2ccccc12 [Example 1-n-Butylisoquinoline, 1-n-Butylisoquinoline]	5.27	5.27	5.27	5.27	<10	<10	<10	<10 (cm·mol/L)^−1	<10	<10 (cm·mol/L)^−1	–	–
c1ccc(-c2c3ccccc3nc3ccccc23)cc1 [Example 9-Phenylacridine, 9-Phenylacridine]	4.04	4.04	4.04	4.04	–	–	–	–	>1000	–	–	–
Clc1ccccn1 [Example B14, 2-chloropyridine]	–	–	–	–	–	–	–	–	–	–	–	pKa [1]: 0.7
Nc1ccncc1 [Example 4-Aminopyridine, 4-Aminopyridine]	9.2	9.2	9.2	9.2	<100	<100	<100	<100 (cm·mol/L)^−1	<100	<100 (cm·mol/L)^−1	–	–
Nc1ccncc1 [Example B13, 4-aminopyridine]	–	–	–	–	–	–	–	–	–	–	–	pKa (physchem): 9.2
c1ccncc1 [Example B11, pyridine]	–	–	–	–	<10	<10	<10	<10 (cm·mol/L)^−1	<10	<10 (cm·mol/L)^−1	–	–
Cc1c2ccccc2nc2ccccc12 [Example 9-Methylacridine, 9-Methylacridine]	5.4	5.4	5.4	5.4	6300	6300	6300	6300 (cm·mol/L)^−1	6300	6300 (cm·mol/L)^−1	–	–
